Measured values reported in patent US20140005165A1, “SUBSTITUTED 3-AZABICYCLO[3.1.0]HEXANE DERIVATIVES USEFUL AS CCR2 ANTAGONISTS” (priority 2011, published 2014).

Biological target: T1, human CCR2 (Homo sapiens, UniProt P41597)
T1 construct: expressed in transfected cells; host or cells: Ba/F3 cells (membrane preparation)
Experiment: CCR2 Membrane Binding Assay (SPA radio-ligand binding, 125I-rhMCP-1)
Settings: membranes from Ba/F3 cells transfected with human CCR2, 0.03 nM 125I-rhMCP-1
Description: The radio-ligand binding assay was done using scintillation proximity assay (SPA) technology. Briefly, membranes (1 μg per assay point) from Ba/F3 cells transfected with human CCR2, and wheat germ agglutinin-coated SPA beads (80 μg per point; Amersham, Arlington Heights, Ill.), were pre-incubated for 30 min at room temperature in CCR2 buffer (50 mM HEPES (pH=7.4), 10 mM MgCl2, 10 mM NaCl, 1 mM CaCL2, 0.1% BSA, 10 μg/ml Saponin). At this point pre-bound SPA bead, membrane complex was incubated at room temperature for 4 h with varying concentrations of punitive CCR2 antagonists (in 1% DMSO, final) and 0.03 nM ^125I-rhMCP-1 in CCR2Buffer (S.A. 2200 Ci/mmol, PerkinElmer Life and Analytical Science, Boston, Mass.; NEX332). Binding competition was measured using a 1450 Microbeta Trilux counter (Wallac, Gaithersburg, Md.). Binding constants (IC50 and slope) were calculated using GraphPad Prism software (GraphPad Software, Inc., La Jolla Calif.).

T1 sequence (P41597 whole entry): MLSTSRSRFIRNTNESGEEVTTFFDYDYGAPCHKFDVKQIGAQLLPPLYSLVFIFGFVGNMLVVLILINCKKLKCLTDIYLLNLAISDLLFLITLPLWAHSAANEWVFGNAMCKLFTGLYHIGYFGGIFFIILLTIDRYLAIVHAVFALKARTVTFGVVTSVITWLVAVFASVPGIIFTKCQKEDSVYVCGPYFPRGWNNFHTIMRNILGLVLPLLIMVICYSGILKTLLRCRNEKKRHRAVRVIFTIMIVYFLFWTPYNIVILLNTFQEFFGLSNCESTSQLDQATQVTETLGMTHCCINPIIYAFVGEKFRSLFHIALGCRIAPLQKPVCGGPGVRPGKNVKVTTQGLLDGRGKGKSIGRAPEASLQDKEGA

Row | Compound | IC50 (class symbols) [nM] | other results
1 | O=C([C@H]1[C@@H]2CN([C@H]3CC[C@@H](c4ccccc4)CC3)C[C@@H]21)N1CCc2ncc(C(F)(F)F)cc2C1 [Compound 61] | 201 to 700 | 
2 | N#Cc1ccc([C@H]2CC[C@@H](N3C[C@@H]4[C@H](C3)[C@H]4C(=O)NCC(=O)Nc3cccc(C(F)(F)F)c3)CC2)cc1 [Compound 126] | < 50 | 
3 | O=C(CNC(=O)[C@H]1[C@@H]2CN([C@H]3CC[C@H](c4ccc(OCc5ccccc5)cc4)CC3)C[C@@H]21)Nc1cccc(C(F)(F)F)c1 [Compound 161] | 201 to 700 | 
4 | COc1ccc(CC2CCCC(N3C[C@@H]4[C@H](C3)[C@H]4C(=O)NCC(=O)Nc3cccc(C(F)(F)F)c3)C2)cc1 (stereo partly shown) [Compound 146] | 201 to 700 | 
5 | O=C(CNC(=O)[C@H]1[C@@H]2CN(C3CCC(O)(c4cncs4)CC3)C[C@@H]21)Nc1cccc(C(F)(F)F)c1 (stereo partly shown) [Compound 123] | 201 to 700 | 
6 | O=C([C@H]1[C@@H]2CN([C@H]3CC[C@@H](c4ccccc4)CC3)C[C@@H]21)N1CCC(c2cccc(C(F)(F)F)c2)CC1 [Compound 106] |  | IC50 (nM) (class symbols): D (compounds with IC50 values between 701 nM and 110 nM are designated as D class compounds)
7 | O=C(CNC(=O)[C@H]1[C@@H]2CN(C3CCC(O)(c4nccs4)CC3)C[C@@H]21)Nc1cccc(C(F)(F)F)c1 (stereo partly shown) [Compound 120] |  | IC50 (4 h room temperature): 3.9 nM
8 | COC(=O)[C@H]1CC[C@@H](N2C[C@@H]3[C@H](C2)[C@H]3C(=O)NCC(=O)Nc2cccc(C(F)(F)F)c2)CC1 [Compound 57] | < 50 | 
9 | O=C(CNC(=O)[C@H]1[C@@H]2CN(C3C[C@@H]4CC[C@H]3C4)C[C@@H]21)Nc1cccc(C(F)(F)F)c1 (stereo partly shown) [Compound 27] | 51 to 200 | 
10 | Cc1[nH]c2c(C(F)(F)F)cccc2c1CCNC(=O)[C@H]1[C@@H]2CN([C@H]3CC[C@@H](c4ccccc4)CC3)C[C@@H]21 [Compound 125] | 201 to 700 | 
11 | CC(=O)NC1CCC(N2C[C@@H]3[C@H](C2)[C@H]3C(=O)NCC(=O)Nc2cccc(C(F)(F)F)c2)CC1 (stereo partly shown) [Compound 55] | 201 to 700 | 
12 | O=C(CNC(=O)[C@H]1[C@@H]2CN(C3CCC(c4ccccc4)CC3)C[C@@H]21)Nc1cccc(C(F)(F)F)c1 (stereo partly shown) [Compound 4] |  | IC50 (4 h room temperature): 3.5 nM
13 | O=C([C@H]1[C@@H]2CN([C@H]3CC[C@@H](c4ccccc4)CC3)C[C@@H]21)N1CC[C@H](Nc2nccc(C(F)(F)F)n2)C1 [Compound 111] | 51 to 200 | 
14 | O=C(CNC(=O)[C@H]1[C@@H]2CN(C3CC(c4ccccc4)C3)C[C@@H]21)Nc1cccc(C(F)(F)F)c1 (stereo partly shown) [Compound 49] | 51 to 200 | 
15 | O=C(CNC(=O)[C@H]1[C@@H]2CN([C@H]3CC[C@H](c4cccs4)CC3)C[C@@H]21)Nc1cccc(C(F)(F)F)c1 [Compound 100] | 201 to 700 | 
16 | O=C(CNC(=O)[C@H]1[C@@H]2CN([C@H]3CC[C@@H](c4ccc(OCc5ccccc5)cc4)CC3)C[C@@H]21)Nc1cccc(C(F)(F)F)c1 [Compound 160] | < 50 | 
17 | O=C(CNC(=O)[C@H]1[C@@H]2CN([C@H]3CC[C@@H](c4ccncc4)CC3)C[C@@H]21)Nc1cccc(C(F)(F)F)c1 [Compound 83] |  | IC50 (4 h room temperature): 11 nM
18 | CC(CCc1ccccc1)N1C[C@@H]2[C@H](C1)[C@H]2C(=O)NCC(=O)Nc1cccc(C(F)(F)F)c1 (stereo partly shown) [Compound 50] |  | IC50 (nM) (class symbols): D (compounds with IC50 values between 701 nM and 110 nM are designated as D class compounds)
19 | O=C(CNC(=O)[C@H]1[C@@H]2CN(C3CCC(O)(c4cncs4)CC3)C[C@@H]21)Nc1cccc(C(F)(F)F)c1 (stereo partly shown) [Compound 121] | < 50 | 
20 | CCC(CC)N1C[C@@H]2[C@H](C1)[C@H]2C(=O)NCC(=O)Nc1cccc(C(F)(F)F)c1 [Compound 13] | 51 to 200 | 

Row | Compound | IC50 (class symbols) [nM] | other results
21 | O=C(CNC(=O)[C@H]1[C@@H]2CN([C@H]3CC[C@@H](NC(=O)OCc4ccccc4)CC3)C[C@@H]21)Nc1cccc(C(F)(F)F)c1 [Compound 154] |  | IC50 (4 h room temperature): 8.3 nM
22 | O=C([C@H]1[C@@H]2CN([C@H]3CC[C@@H](c4ccccc4)CC3)C[C@@H]21)N1CCC(c2cccc(C(F)(F)F)c2)C1 (stereo partly shown) [Compound 70] | < 50 | 
23 | O=C(CNC(=O)[C@H]1[C@@H]2CN([C@H]3CC[C@@H](c4ccccc4)OC3)C[C@@H]21)Nc1cccc(C(F)(F)F)c1 [Compound 89] |  | IC50 (4 h room temperature): 3.6 nM
24 | O=C(CNC(=O)[C@H]1[C@@H]2CN(C3CC(COCc4ccccc4)C3)C[C@@H]21)Nc1cccc(C(F)(F)F)c1 (stereo partly shown) [Compound 116] | 201 to 700 | 
25 | O=C([C@H]1[C@@H]2CN([C@H]3CC[C@@H](c4ccccc4)CC3)C[C@@H]21)N1CC(c2cccc(C(F)(F)F)c2)C1 [Compound 59] | 201 to 700 | 
26 | COc1ncc([C@H]2CC[C@@H](N3C[C@@H]4[C@H](C3)[C@H]4C(=O)NCC(=O)Nc3cccc(C(F)(F)F)c3)CC2)cn1 [Compound 133] | < 50 | 
27 | O=C(NCc1cccc(C(F)(F)F)c1)[C@H]1[C@@H]2CN([C@H]3CC[C@@H](c4ccccc4)CC3)C[C@@H]21 [Compound 42] | 51 to 200 | 
28 | N#Cc1ccc(C2CCN(C(=O)[C@H]3[C@@H]4CN([C@H]5CC[C@@H](c6ccccc6)CC5)C[C@@H]43)C2)cc1 (stereo partly shown) [Compound 41] | 201 to 700 | 
29 | O=C(NCC1(c2cccc(C(F)(F)F)c2)CC1)[C@H]1[C@@H]2CN([C@H]3CC[C@@H](c4ccccc4)CC3)C[C@@H]21 [Compound 74] | 201 to 700 | 
30 | COc1ccc(C2(O)CCC(N3C[C@@H]4[C@H](C3)[C@H]4C(=O)NCC(=O)Nc3cccc(C(F)(F)F)c3)CC2)cn1 (stereo partly shown) [Compound 147] |  | IC50 (4 h room temperature): 4.5 nM
31 | COc1ccc([C@H]2CC[C@@H](N3C[C@@H]4[C@H](C3)[C@H]4C(=O)NCC(=O)Nc3cccc(C(F)(F)F)c3)CC2)cn1 [Compound 132] |  | IC50 (4 h room temperature): 3.4 nM
32 | O=C(CNC(=O)[C@H]1[C@@H]2CN([C@H]3CC[C@@H](Nc4ccc(F)c(F)c4)CC3)C[C@@H]21)Nc1cccc(C(F)(F)F)c1 [Compound 148] | < 50 | 
33 | O=C1CC2CC(N3C[C@@H]4[C@H](C3)[C@H]4C(=O)NCC(=O)Nc3cccc(C(F)(F)F)c3)CC2C1 (stereo partly shown) [Compound 44] | 201 to 700 | 
34 | O=C(CNC(=O)[C@H]1[C@@H]2CN([C@H]3CC[C@H](Nc4ccc(F)c(F)c4)CC3)C[C@@H]21)Nc1cccc(C(F)(F)F)c1 [Compound 149] | 201 to 700 | 
35 | CC1(C)CCCC(N2C[C@@H]3[C@H](C2)[C@H]3C(=O)NCC(=O)Nc2cccc(C(F)(F)F)c2)C1 (stereo partly shown) [Compound 38] | 201 to 700 | 
36 | O=C([C@H]1[C@@H]2CN([C@H]3CC[C@@H](c4ccccc4)CC3)C[C@@H]21)N1CCC(Nc2nccc(C(F)(F)F)n2)CC1 [Compound 128] | 201 to 700 | 
37 | O=C(CNC(=O)[C@H]1[C@@H]2CN([C@H]3CC[C@@H](c4cnc(O)nc4O)CC3)C[C@@H]21)Nc1cccc(C(F)(F)F)c1 [Compound 134] | 51 to 200 | 
38 | O=C([C@H]1[C@@H]2CN([C@H]3CC[C@@H](c4ccccc4)CC3)C[C@@H]21)N1CCC(c2ccc(C(F)(F)F)cc2)C1 (stereo partly shown) [Compound 73] | 51 to 200 | 
39 | O=C(CNC(=O)[C@H]1[C@@H]2CN(C3CC=C(c4ccc5c(c4)OCO5)CC3)C[C@@H]21)Nc1cccc(C(F)(F)F)c1 (stereo partly shown) [Compound 139] | 201 to 700 | 
40 | COc1ccc([C@H]2CC[C@H](N3C[C@@H]4[C@H](C3)[C@H]4C(=O)NCC(=O)Nc3cccc(C(F)(F)F)c3)CC2)cc1 [Compound 131] |  | IC50 (nM) (class symbols): D (compounds with IC50 values between 701 nM and 110 nM are designated as D class compounds)
